The results in this text go back to ChEMBL document CHEMBL1177779, “Development of dual functional SPECT/fluorescent probes for imaging cerebral beta-amyloid plaques” (Bioorg Med Chem Lett, 2010).

The nature of data set [1]: Displacement of [125I]IMPY from amyloid beta (1-42) after 3 hrs by gamma counting. (In general: Displacement assays read how much labelled ligand stays bound in the presence of the test substance.)
Data set [2] deals with Blood. Nature of the data set: Biodistribution in ddY mouse blood assessed per gram of tissue at 7.77 KBq, iv after 2 mins by gamma counting. The class given is ADME, organism-based. Particulars: in vivo.
Data set [3] deals with Blood. Briefly: Biodistribution in ddY mouse blood assessed per gram of tissue at 7.77 KBq, iv after 10 mins by gamma counting. Particulars: in vivo. The format is ADME, organism-based.
Data set [4] concerns Blood. Briefly: Biodistribution in ddY mouse blood assessed per gram of tissue at 7.77 KBq, iv after 30 mins by gamma counting. The format is ADME, organism-based. Particulars: in vivo, 0.5 h.
Data set [5] deals with Blood. Nature of the data set: Biodistribution in ddY mouse blood assessed per gram of tissue at 7.77 KBq, iv after 60 mins by gamma counting. The class given is ADME, organism-based. Particulars: in vivo, 1 h.
Data set [6] deals with Liver. Briefly: Biodistribution in ddY mouse liver assessed per gram of tissue at 7.77 KBq, iv after 2 mins by gamma counting. The format is ADME, organism-based. Particulars: in vivo.
Data set [7] concerns Liver. Briefly: Biodistribution in ddY mouse liver assessed per gram of tissue at 7.77 KBq, iv after 10 mins by gamma counting. Particulars: in vivo. The format is ADME, organism-based.
Data set [8] relates to Liver. Briefly: Biodistribution in ddY mouse liver assessed per gram of tissue at 7.77 KBq, iv after 30 mins by gamma counting. The format is ADME, organism-based. Particulars: in vivo, 0.5 h.
The test system of data set [9] is Liver. Briefly: Biodistribution in ddY mouse liver assessed per gram of tissue at 7.77 KBq, iv after 60 mins by gamma counting. Particulars: in vivo, 1 h. The class given is ADME, organism-based.
Data set [10] deals with Kidney. Briefly: Biodistribution in ddY mouse kidney assessed per gram of tissue at 7.77 KBq, iv after 2 mins by gamma counting. Particulars: in vivo. The class given is ADME, organism-based.
For data set [11], the system named is Kidney. Briefly: Biodistribution in ddY mouse kidney assessed per gram of tissue at 7.77 KBq, iv after 10 mins by gamma counting. The class given is ADME, organism-based. Particulars: in vivo.
The test system of data set [12] is Kidney. Briefly: Biodistribution in ddY mouse kidney assessed per gram of tissue at 7.77 KBq, iv after 30 mins by gamma counting. The format is ADME, organism-based. Particulars: in vivo, 0.5 h.
Data set [13] has as its system Kidney. Briefly: Biodistribution in ddY mouse kidney assessed per gram of tissue at 7.77 KBq, iv after 60 mins by gamma counting. The format is ADME, organism-based. Particulars: in vivo, 1 h.
Data set [14] concerns Intestine. Briefly: Biodistribution in ddY mouse intestine assessed per gram of tissue at 7.77 KBq, iv after 2 mins by gamma counting. The class given is ADME, organism-based. Particulars: in vivo.
For data set [15], the system named is Intestine. Briefly: Biodistribution in ddY mouse intestine assessed per gram of tissue at 7.77 KBq, iv after 10 mins by gamma counting. The class given is ADME, organism-based. Particulars: in vivo.
For data set [16], the system named is Intestine. Nature of the data set: Biodistribution in ddY mouse intestine assessed per gram of tissue at 7.77 KBq, iv after 30 mins by gamma counting. The format is ADME, organism-based. Particulars: in vivo, 0.5 h.
The test system of data set [17] is Intestine. Nature of the data set: Biodistribution in ddY mouse intestine assessed per gram of tissue at 7.77 KBq, iv after 60 mins by gamma counting. The class given is ADME, organism-based. Particulars: in vivo, 1 h.
In data set [18] the test system is Spleen. Nature of the data set: Biodistribution in ddY mouse spleen assessed per gram of tissue at 7.77 KBq, iv after 2 mins by gamma counting. Particulars: in vivo. The class given is ADME, organism-based.
The test system of data set [19] is Spleen. Briefly: Biodistribution in ddY mouse spleen assessed per gram of tissue at 7.77 KBq, iv after 10 mins by gamma counting. The class given is ADME, organism-based. Particulars: in vivo.
For data set [20], the system named is Spleen. Nature of the data set: Biodistribution in ddY mouse spleen assessed per gram of tissue at 7.77 KBq, iv after 30 mins by gamma counting. The class given is ADME, organism-based. Particulars: in vivo, 0.5 h.
Data set [21] concerns Spleen. Nature of the data set: Biodistribution in ddY mouse spleen assessed per gram of tissue at 7.77 KBq, iv after 60 mins by gamma counting. The class given is ADME, organism-based. Particulars: in vivo, 1 h.
Data set [22] has as its system Pancreas. Briefly: Biodistribution in ddY mouse pancreas assessed per gram of tissue at 7.77 KBq, iv after 2 mins by gamma counting. Particulars: in vivo. The class given is ADME, organism-based.
The subject of data set [23] is Pancreas. Nature of the data set: Biodistribution in ddY mouse pancreas assessed per gram of tissue at 7.77 KBq, iv after 10 mins by gamma counting. The class given is ADME, organism-based. Particulars: in vivo.
Data set [24] relates to Pancreas. Briefly: Biodistribution in ddY mouse pancreas assessed per gram of tissue at 7.77 KBq, iv after 30 mins by gamma counting. Particulars: in vivo, 0.5 h. The class given is ADME, organism-based.
Data set [25] has as its system Pancreas. Briefly: Biodistribution in ddY mouse pancreas assessed per gram of tissue at 7.77 KBq, iv after 60 mins by gamma counting. Particulars: in vivo, 1 h. The class given is ADME, organism-based.
Data set [26] deals with Heart. Briefly: Biodistribution in ddY mouse heart assessed per gram of tissue at 7.77 KBq, iv after 2 mins by gamma counting. The class given is ADME, organism-based. Particulars: in vivo.
For data set [27], the system named is Heart. Nature of the data set: Biodistribution in ddY mouse heart assessed per gram of tissue at 7.77 KBq, iv after 10 mins by gamma counting. The format is ADME, organism-based. Particulars: in vivo.
The test system of data set [28] is Heart. Nature of the data set: Biodistribution in ddY mouse heart assessed per gram of tissue at 7.77 KBq, iv after 30 mins by gamma counting. The format is ADME, organism-based. Particulars: in vivo, 0.5 h.
Data set [29] has as its system Heart. Briefly: Biodistribution in ddY mouse heart assessed per gram of tissue at 7.77 KBq, iv after 60 mins by gamma counting. The format is ADME, organism-based. Particulars: in vivo, 1 h.
Data set [30] concerns Stomach. Briefly: Biodistribution in ddY mouse stomach assessed per organ at 7.77 KBq, iv after 2 mins by gamma counting. Particulars: in vivo. The format is ADME, organism-based.
For data set [31], the system named is Stomach. Briefly: Biodistribution in ddY mouse stomach assessed per organ at 7.77 KBq, iv after 10 mins by gamma counting. Particulars: in vivo. The class given is ADME, organism-based.
Data set [32] deals with Stomach. Nature of the data set: Biodistribution in ddY mouse stomach assessed per organ at 7.77 KBq, iv after 30 mins by gamma counting. The format is ADME, organism-based. Particulars: in vivo, 0.5 h.
Data set [33] concerns Stomach. Nature of the data set: Biodistribution in ddY mouse stomach assessed per organ at 7.77 KBq, iv after 60 mins by gamma counting. The format is ADME, organism-based. Particulars: in vivo, 1 h.
Data set [34] relates to Brain. Nature of the data set: Biodistribution in ddY mouse brain assessed per gram of tissue at 7.77 KBq, iv after 2 mins by gamma counting. The format is ADME, organism-based. Particulars: in vivo.
In data set [35] the test system is Brain. Briefly: Biodistribution in ddY mouse brain assessed per gram of tissue at 7.77 KBq, iv after 10 mins by gamma counting. Particulars: in vivo. The format is ADME, organism-based.
In data set [36] the test system is Brain. Nature of the data set: Biodistribution in ddY mouse brain assessed per gram of tissue at 7.77 KBq, iv after 30 mins by gamma counting. The format is ADME, organism-based. Particulars: in vivo, 0.5 h.
Data set [37] deals with Brain. Briefly: Biodistribution in ddY mouse brain assessed per gram of tissue at 7.77 KBq, iv after 60 mins by gamma counting. The class given is ADME, organism-based. Particulars: in vivo, 1 h.

With `CC1=CC(C)=[N+]2C1=Cc1ccc(/C=C/c3ccc(-c4ccc(I)cc4)s3)n1[B-]2(F)F`, in data set [1], the Ki stood at 108 nM and the inhibition entry was “Dose-dependent effect”.
As for `CC1=CC(C)=[N+]2C1=Cc1ccc(/C=C/c3ccc(-c4ccc([125I])cc4)s3)n1[B-]2(F)F`, the Drug uptake in data set [2] was 11.67 % ID/g; in data set [3] it was 4.09 % ID/g; in data set [4], 3.09 % ID/g; in data set [5] it was 2.44 % ID/g; in data set [6], 35.51 % ID/g; in [7] it was 46.02 % ID/g. Further, the Drug uptake in data set [8] is on record as 45.87 % ID/g; in data set [9], 45.78 % ID/g; in [10], 5.39 % ID/g; in data set [11], 4.79 % ID/g; in data set [12], 4.46 % ID/g; in [13] it was 4.43 % ID/g. The Drug uptake in data set [14] is given as 0.48 % ID/g; in data set [15], 0.93 % ID/g; in data set [16], 1.91 % ID/g; in [17] it was 3.04 % ID/g; in [18], 16.12 % ID/g; in [19] it was 26.9 % ID/g. For the same molecule, the Drug uptake is on record as 28.21 % ID/g in data set [20]; 21.52 % ID/g in data set [21]; 1.19 % ID/g in data set [22]; 0.74 % ID/g in data set [23]; 0.72 % ID/g in [24]; 0.92 % ID/g in data set [25]. Moreover, the Drug uptake in [26] was 5.59 % ID/g; in data set [27], 2.95 % ID/g; in data set [28], 2.31 % ID/g; in [29] it was 2.3 % ID/g; in [30], 1.4 %ID; in [31], 4.73 %ID. Also, the Drug uptake in [32] is given as 4.79 %ID; in data set [33], 5.5 %ID; in data set [34], 0.4 % ID/g; in [35], 0.19 % ID/g; in data set [36] it was 0.14 % ID/g; in data set [37] it was 0.14 % ID/g.

What is called Ki is a dissociation constant, usually derived from enzyme kinetics or from competition with a known ligand.
